The text below walks through data of patent US6194422A, “Anthracycline derivatives” (Pharmacia & Upjohn SpA, priority 1997, dated 2001).

Aβ1-40 peptide monomer, sequence (P05067 672-711 limits assumed): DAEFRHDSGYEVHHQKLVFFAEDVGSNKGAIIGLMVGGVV

This assay addresses Aβ1-40 peptide monomer (Homo sapiens, UniProt P05067). The assay is classed as biochemical. The settings on record: 50 μM test compound, 20 μM Aβ1-40 monomer, 4 μM pre-formed sonicated Aβ1-40 fibrils, pH 7.4, two hours at 37° C., HPLC. As to the method:
The activity of the disclosed compounds is assessed according to the procedure reported below. An Aβ1-40 peptide monomer stock solution is prepared by dissolving the peptide in dimethylsulfoxide at a concentration of 33.33 mg/mL. The stock solution is further diluted 1 to 11.5 with dimethylsulfoxide. This solution is then diluted with 10 mM phosphate buffer pH 7.4 containing 150 mM sodium chloride to prepare the test solution. To an eppendorf tube containing 47 μL of Aβ1-40 peptide monomer solution are added 3 μL of a 830 μM water solution of the test compound containing 66.4 μM, based on the Aβ1 -40 monomer content, of pre-formed sonicated Aβ1-40 fibrils: the resulting solution is 20 μM in Aβ1-40 monomer, 50 μM in the test compound and contains 4 μM, based on the Aβ1-40 monomer content, of pre-formed sonicated Aβ1-40 fibrils. The aggregation is allowed to proceed for two hours at 37° C. The suspension is then centrifuged at 15000 rpm for 15 minutes at +4° C., the supernatant is collected and the Aβ1 -40 monomer is quantitated by HPLC. The activity is expressed as the percent of inhibition of the aggregation of a 20 μM Aβ1-40 monomer solution stimulated by 4 μM, based on the Aμ1-40 monomer content, pre-formed sonicated Aμ1-40 fibrils.
In the case of `C=CCN1C2CC(=NOC)C1(C)Cc1c(O)c3c(c(O)c12)C(=O)c1c(OC)cccc1C3=O` (stereo not drawn) [Compound 1c, 8-N-allylanthrazalone O-methyl-oxime], the “% inhibition (of the aggregation of Aβ1-40 monomer)” value (“% inhibition” for short) is given as 36.0%.

Turning to `CON=C1CC2c3c(O)c4c(c(O)c3CC1(C)N2Cc1ccc(OC)c(OC)c1)C(=O)c1cccc(OC)c1C4=O` (stereo not drawn) [Compound 1e, 8-N-(3.4-dimethoxybenzyl)anthrazalone O-methyloxime], the “% inhibition” value is on record as 26.2%.

As for `CON=C1CC2c3c(O)c4c(c(O)c3CC1(C)N2Cc1ccncc1)C(=O)c1cccc(OC)c1C4=O` (stereo not drawn) [Compound 1p, 8-N-(4-pyridylmethyl)anthrazalone O-methyloxime], the “% inhibition” value is 31.7%.

With `CCON=C1CC2NC1(C)Cc1c(O)c3c(c(O)c12)C(=O)c1c(OC)cccc1C3=O` (single isomer, unassigned) [lac-I, Anthrazalone O-ethyloxime], the “% inhibition” value is given as 54.2%.

Consider `COc1cccc2c1C(=O)c1c(O)c3c(c(O)c1C2=O)CC1(C)C(=NOCc2ccccc2)CC3N1Cc1ccncc1` (stereo not drawn) [Compound 1q, 8-N-(4-pyridylmethyl)anthrazalone O-benzyloxime], for which the “% inhibition” value stood at 24.2%.

`COc1ccc(CN2C3CC(=NO)C2(C)Cc2c(O)c4c(c(O)c23)C(=O)c2c(OC)cccc2C4=O)cc1OC` (stereo not drawn) [Compound 1a, 8-N-(3,4-dimethoxybenzyl) anthrazalone oxime]: the “% inhibition” value is 22.9%.
